# Biological target: S31N mutant M2 channel (Influenza A virus, UniProt P0DOF5, S31N)
# Type: biochemical
row,Structure (SMILES),Inhibition of S31N mutant M2 channel
1,"CC1(C)N=C(N)N=C(N)N1c1ccc(Cl)cc1 [Compound 1, cycloguanil, reference compound]",neither of the three compounds significantly inhibited
2,CC1(C)N=C(N)N=C(N)N1c1cccc(C(F)(F)F)c1 [Compound 14],neither of the three compounds significantly inhibited
3,CC1(C)N=C(N)N=C(N)N1c1ccc(Cl)c(Cl)c1 [Compound 16],neither of the three compounds significantly inhibited

# Source: paper PMC7115580 (European Journal of Medicinal Chemistry, 2017)
